Assay results published in patent publication US7232814B2 (Centre National de la Recherche Scientifique (C.N.R.S.), priority 2000, dated 2007).

Row | Structure (SMILES) | melting point
1 | COc1cc2c(cc1OC)-c1[nH]c3ccc(C#N)cc3c1CC(=O)N2 [98 N 217, 2,3-Dimethoxy-6-oxo-5,6,7,12-tetrahydro-indolo [3,2-d][1]benzazepin-9-carbonitrile(9-cyano-2,3-dimethoxypaullone)] | > 330 °C
2 | O=C1Cc2c([nH]c3ccc([N+](=O)[O-])cc23)-c2cc(Br)ccc2N1 [98 N 354, 2-Bromo-7,12-dihydro-9-nitro-indolo[3,2-d][1]benzazepin-6(5H)-one(2-bromo-9-nitropaullone)] | > 330 °C
3 | COc1cc2c(cc1OC)-c1[nH]c3ccc([N+](=O)[O-])cc3c1CC(=O)N2 [98 N 356, 2,3-Dimethoxy-7,12-dihydro-9-nitro-indolo[3,2-d][1]benzazepin-6(5H)-one(2,3-dimethoxy-9-nitropaullone)] | > 330 °C
